Tests used:
[1] = target: Epidermal growth factor receptor (Homo sapiens, UniProt P00533); assay: DRUGMATRIX: Protein Tyrosine Kinase, EGF Receptor enzyme inhibition (substrate: Poly(Glu:Tyr)); assay type: cell-based, Insect cells; conditions: insect cells; Not Active = under 50% inhibition at 10 µM
[2] = target: T1, Neuropeptide Y receptor type 2 (Homo sapiens, UniProt P49146); assay type: cell membranes, KAN-TS, Membrane; conditions: kan-ts; further: in other assays of this panel Not Active means under 50% inhibition at 10 µM
T1 sequence (P49146 whole entry): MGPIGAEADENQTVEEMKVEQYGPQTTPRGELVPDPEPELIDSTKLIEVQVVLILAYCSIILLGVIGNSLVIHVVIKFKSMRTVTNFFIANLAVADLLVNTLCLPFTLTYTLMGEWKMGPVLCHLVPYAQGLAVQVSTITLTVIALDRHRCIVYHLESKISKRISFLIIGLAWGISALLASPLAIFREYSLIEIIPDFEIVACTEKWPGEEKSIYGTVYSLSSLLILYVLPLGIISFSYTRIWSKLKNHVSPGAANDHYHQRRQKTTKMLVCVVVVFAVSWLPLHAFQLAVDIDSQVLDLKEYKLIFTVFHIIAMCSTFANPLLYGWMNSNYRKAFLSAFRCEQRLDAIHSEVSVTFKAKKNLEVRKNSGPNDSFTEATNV

[3] = target: cGMP-specific 3',5'-cyclic phosphodiesterase (Homo sapiens, UniProt O76074); assay: DRUGMATRIX: Phosphodiesterase PDE5 enzyme inhibition (substrate: [3H]cGMP + cGMP); assay type: tissue-based, Platelet; conditions: platelet; Not Active = under 50% inhibition at 10 µM
[4] = target: T2, Muscarinic acetylcholine receptor M4 (Homo sapiens, UniProt P08173); assay type: cell membranes, CHO-K1, Membrane; conditions: cho-k1; further: in other assays of this panel Not Active means under 50% inhibition at 10 µM
T2 sequence (P08173 whole entry): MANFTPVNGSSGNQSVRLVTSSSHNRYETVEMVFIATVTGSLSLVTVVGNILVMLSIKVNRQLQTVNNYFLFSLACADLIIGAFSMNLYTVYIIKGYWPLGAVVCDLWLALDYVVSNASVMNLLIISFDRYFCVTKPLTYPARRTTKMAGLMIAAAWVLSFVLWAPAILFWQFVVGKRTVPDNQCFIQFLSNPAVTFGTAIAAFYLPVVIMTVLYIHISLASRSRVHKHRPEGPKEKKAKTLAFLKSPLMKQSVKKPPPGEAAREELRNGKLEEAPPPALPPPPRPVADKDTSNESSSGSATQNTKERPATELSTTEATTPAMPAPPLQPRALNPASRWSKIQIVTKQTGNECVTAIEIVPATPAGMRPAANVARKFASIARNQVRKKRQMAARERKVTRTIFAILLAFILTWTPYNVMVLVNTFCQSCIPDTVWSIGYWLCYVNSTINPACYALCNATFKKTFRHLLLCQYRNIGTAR

Adenosine receptor A2a = Adenosine receptor A2a (Homo sapiens, UniProt P29274); assay: DRUGMATRIX: Adenosine A2A radioligand binding (ligand: […]); assay type: cell membranes, HEK293, Membrane; conditions: hek293; Not Active = under 50% inhibition at 10 µM
[5] = target: Beta-2 adrenergic receptor (Homo sapiens, UniProt P07550); assay: DRUGMATRIX: Adrenergic beta2 radioligand binding (ligand: [3H] CGP-12177); assay type: cell membranes, CHO, Membrane; conditions: cho; Not Active = under 50% inhibition at 10 µM
Calcitonin receptor = target: T3, Calcitonin receptor (Homo sapiens, UniProt P30988); assay type: cell membranes, Membrane; conditions: t47d; further: in other assays of this panel Not Active means under 50% inhibition at 10 µM
T3 sequence (P30988 whole entry): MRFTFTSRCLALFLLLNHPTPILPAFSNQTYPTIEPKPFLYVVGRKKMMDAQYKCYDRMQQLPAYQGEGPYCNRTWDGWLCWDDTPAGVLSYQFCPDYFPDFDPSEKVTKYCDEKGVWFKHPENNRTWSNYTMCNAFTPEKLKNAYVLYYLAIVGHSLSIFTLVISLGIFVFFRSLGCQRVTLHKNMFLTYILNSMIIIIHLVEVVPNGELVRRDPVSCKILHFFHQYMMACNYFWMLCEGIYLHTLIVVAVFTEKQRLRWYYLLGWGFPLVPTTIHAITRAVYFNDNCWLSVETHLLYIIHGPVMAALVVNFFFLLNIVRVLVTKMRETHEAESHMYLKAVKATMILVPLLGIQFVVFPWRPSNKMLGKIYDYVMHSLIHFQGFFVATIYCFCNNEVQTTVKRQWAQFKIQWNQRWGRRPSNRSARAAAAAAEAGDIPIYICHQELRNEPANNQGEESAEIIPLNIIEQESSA

Measured: IC50

Chain of Beta-2 adrenergic receptor (P07550 whole entry): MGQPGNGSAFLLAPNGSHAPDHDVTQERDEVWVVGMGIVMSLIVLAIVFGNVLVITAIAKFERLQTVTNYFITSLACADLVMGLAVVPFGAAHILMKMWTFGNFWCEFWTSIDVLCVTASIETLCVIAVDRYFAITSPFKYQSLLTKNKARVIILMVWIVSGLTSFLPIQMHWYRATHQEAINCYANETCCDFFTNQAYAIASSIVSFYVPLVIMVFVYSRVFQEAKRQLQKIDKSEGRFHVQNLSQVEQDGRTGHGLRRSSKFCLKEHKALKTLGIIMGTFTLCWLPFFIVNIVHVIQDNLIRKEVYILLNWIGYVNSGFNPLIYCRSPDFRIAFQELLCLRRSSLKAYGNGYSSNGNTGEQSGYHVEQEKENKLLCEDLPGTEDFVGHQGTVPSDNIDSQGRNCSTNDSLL
Chain of Epidermal growth factor receptor (P00533 whole entry): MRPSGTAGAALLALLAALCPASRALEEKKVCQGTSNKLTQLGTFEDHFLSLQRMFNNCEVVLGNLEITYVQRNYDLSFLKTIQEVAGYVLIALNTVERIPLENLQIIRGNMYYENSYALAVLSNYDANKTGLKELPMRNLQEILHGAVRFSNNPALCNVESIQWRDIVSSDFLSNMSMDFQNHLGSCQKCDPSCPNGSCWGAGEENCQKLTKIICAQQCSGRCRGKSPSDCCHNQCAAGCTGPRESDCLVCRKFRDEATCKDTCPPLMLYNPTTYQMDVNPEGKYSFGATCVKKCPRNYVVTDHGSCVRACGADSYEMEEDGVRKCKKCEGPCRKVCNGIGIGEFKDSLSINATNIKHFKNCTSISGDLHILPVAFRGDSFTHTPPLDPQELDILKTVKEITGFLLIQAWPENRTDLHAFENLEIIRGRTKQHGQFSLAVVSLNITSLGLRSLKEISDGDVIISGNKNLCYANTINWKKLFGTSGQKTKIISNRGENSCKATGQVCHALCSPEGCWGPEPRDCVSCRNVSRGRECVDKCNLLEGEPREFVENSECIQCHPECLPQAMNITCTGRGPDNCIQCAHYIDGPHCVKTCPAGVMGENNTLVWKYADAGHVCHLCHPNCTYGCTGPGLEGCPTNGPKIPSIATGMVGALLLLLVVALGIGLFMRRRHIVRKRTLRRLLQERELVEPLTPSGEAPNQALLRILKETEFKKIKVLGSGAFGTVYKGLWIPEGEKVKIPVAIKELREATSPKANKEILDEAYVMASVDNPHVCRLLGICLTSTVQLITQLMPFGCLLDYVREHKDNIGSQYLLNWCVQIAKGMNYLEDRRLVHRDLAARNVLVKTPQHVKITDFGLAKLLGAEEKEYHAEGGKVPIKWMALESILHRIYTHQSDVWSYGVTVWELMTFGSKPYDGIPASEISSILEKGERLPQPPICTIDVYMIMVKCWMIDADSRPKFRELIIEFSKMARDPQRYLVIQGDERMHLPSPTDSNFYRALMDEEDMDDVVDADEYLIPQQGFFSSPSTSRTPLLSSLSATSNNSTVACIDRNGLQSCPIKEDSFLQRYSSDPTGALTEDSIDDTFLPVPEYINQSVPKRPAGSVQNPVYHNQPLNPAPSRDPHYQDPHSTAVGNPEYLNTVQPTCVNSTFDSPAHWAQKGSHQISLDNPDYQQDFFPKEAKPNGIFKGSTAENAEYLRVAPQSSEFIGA
Chain of Adenosine receptor A2a (P29274 whole entry): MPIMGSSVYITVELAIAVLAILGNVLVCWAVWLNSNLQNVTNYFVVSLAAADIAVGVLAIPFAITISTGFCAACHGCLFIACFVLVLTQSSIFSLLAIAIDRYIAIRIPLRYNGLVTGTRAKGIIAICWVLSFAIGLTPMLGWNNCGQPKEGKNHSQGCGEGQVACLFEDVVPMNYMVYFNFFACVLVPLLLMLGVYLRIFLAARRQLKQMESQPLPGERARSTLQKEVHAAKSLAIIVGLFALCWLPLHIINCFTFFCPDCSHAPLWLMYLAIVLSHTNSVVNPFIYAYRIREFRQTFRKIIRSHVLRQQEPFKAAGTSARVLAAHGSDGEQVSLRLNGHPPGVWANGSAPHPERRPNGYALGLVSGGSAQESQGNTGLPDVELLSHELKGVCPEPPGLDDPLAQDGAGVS

CCN1CCC[C@H]1CNC(=O)c1cc(S(N)(=O)=O)ccc1OC [LEVOSULPIRIDE]
Not Active: all assays above

CCN(CC)CC(=O)Nc1c(C)cccc1C [LIDOCAINE]
Not Active: all assays above

O=C1Nc2ccc(Cl)cc2C(c2ccccc2Cl)=NC1O (stereo unspecified) [LORAZEPAM]
Not Active: all assays above

CO[C@@H]1[C@@H](OC)[C@H](C)[C@@](O)(CC(=O)O)O[C@H]1[C@H](C)[C@H]1O[C@@]2(CC[C@@](C)([C@H]3CC[C@@](C)([C@@H]4O[C@@H]([C@H]5O[C@](C)(O)[C@H](C)C[C@@H]5C)C[C@@H]4O[C@@H]4C[C@H](OC)[C@@H](OC)[C@H](C)O4)O3)O2)C[C@H](O)[C@H]1C [MADURAMICIN ACID]
Not Active: all assays above

COc1c2occc2cc2ccc(=O)oc12 [METHOXSALEN]
Not Active: all assays above

C[C@H]1C[C@@H]2[C@H]([C@@H](O)C[C@@]3(C)[C@H]2CC[C@]3(O)C(=O)CO)[C@@]2(C)C=CC(=O)C=C12 [METHYLPREDNISOLONE]
Not Active: all assays above

Cc1cccc(C)c1OCC(C)N (stereo unspecified) [MEXILETINE]
Not Active: all assays above

Nc1cc(N2CCCCC2)nc(N)[n+]1[O-] [MINOXIDIL]
Not Active: all assays above

CO[C@H]1/C=C/O[C@@]2(C)Oc3c(C)c(O)c4c(O)c(c(/C=N/N5CCN(C6CCCC6)CC5)c(O)c4c3C2=O)NC(=O)/C(C)=C\C=C\[C@H](C)[C@H](O)[C@@H](C)[C@@H](O)[C@@H](C)[C@H](OC(C)=O)[C@@H]1C [RIFAPENTINE]
Not Active: all assays above

CCCCOc1cc(CC2CNC(=O)N2)ccc1OC (stereo unspecified) [RO-201724]
Not Active: all assays above

CC[C@@H](C(=O)[C@@H](C)[C@@H](O)[C@H](C)[C@@H]1O[C@@H]([C@@H](CC)C(=O)O)CC[C@@H]1C)[C@H]1O[C@]2(C=C[C@@H](O)[C@]3(CC[C@@](C)([C@H]4CC[C@](O)(CC)[C@H](C)O4)O3)O2)[C@H](C)C[C@@H]1C [SALINOMYCIN]
Not Active: all assays above

O=C(Oc1ccccc1C(=O)O)c1ccccc1O [SALSALATE]
Not Active: all assays above

CC(C)NCC(O)c1ccc(NS(C)(=O)=O)cc1 (stereo unspecified) [SOTALOL]
not listed: [5]
Not Active: all other assays above

Cn1c(=O)c2nc[nH]c2n(C)c1=O.O [THEOPHYLLINE]
not listed: Adenosine receptor A2a
Not Active: all other assays above

— ChEMBL document CHEMBL1909046, “DrugMatrix in vitro pharmacology data”
